The text below walks through data of patent US20110319392A1, “Thiazole Sulfonamide And Oxazole Sulfonamide Kinase Inhibitors” (priority 2009, published 2011).

Each structure is given as a SMILES string. Some results are limits rather than exact numbers.

Assay [1] deals with Colo205 tumor cells. Description: Cell growth inhibition assay (CellTiter-Glo), Colo205. It counts as cell-based, Human. As to conditions: Homo sapiens, COLO 205, 72 h; 3 days incubation. Here is the method: (§1) Human breast tumor cells (BT474) were cultured in RPMI (Mediatech […]), containing 10% FBS (JRH Biosciences 12176) and 1% penicillin-streptomycin (Invitrogen 15140). Human head and neck tumor cells (HN5) were cultured in high glucose DMEM (Mediatech 50-013-PB) containing 10% FBS and 1% penicillin-streptomycin. Human colon tumor cells (Colo205) were cultured in RPMI (Mediatech 50-020-PB) containing 10% FBS and 1% penicillin-streptomycin. Human melanoma cancer cells (SK-MEL-28) were cultured in EMEM with nonessential amino acids (Mediatech 50-011-PB) containing 10% FBS, 1% sodium pyruvate (JT Baker 3354-04), and 1% penicillin-streptomycin. Human melanoma cancer cells (A375P F11s) were cultured in RPMI (Mediatech 50-020-PB) containing 10% FBS, 1% sodium pyruvate, and 1% penicillin-streptomycin. Human colon cancer cells (HT-29) were cultured in high glucose DMEM (Mediatech 50-013-PB) containing 10% FBS and 1% penicillin-streptomycin. Human melanoma cancer cells (SK-MEL-3) were cultured in McCoy's 5A (50-025-PB) containing 15% FBS, and 1% penicillin-streptomycin. All cell lines were maintained at 37° C. in a humidified 5% CO2, 95% air incubator. Cells were harvested using trypsin/EDTA (Invitrogen 25200), counted using a haemocytometer, and plated. For 96-well assays (using white full-area NUNC plates cat. #136102), cells were plated in 105 μL at the following densities (cells/well): HNS, 500; Colo 205, 500; SK-MEL-28, 500; A375P F11s, 500; HT-29, 500; SK-MEL-3, 500; and BT474, 3000. For 384-well assays (white full-area NUNC plates, cat. #781080), cells were plated in 48 μL at the following densities (cells/well): HNS, 500; Colo205, 500; SK-MEL-28, 500; A375P F11s, 500; HT-29, 500; SK-MEL-3, 500; and BT474, 2000.
(§2) The next day, compounds were diluted as follow: For 96-well assays, 13.5 μL of compound in DMSO were diluted using nine (9) serial 1:3 dilutions of 4.5 μL in 9 of DMSO. Medium (270 μL/well of RPMI with 10% FBS and 1% penicillin-streptomycin) was added to the plates. Aliquots (7 μL) were added to cells in the final assay giving a final DMSO concentration of 0.2%. For 384-well assays, 15 μL of compound in DMSO were diluted using nine (9) serial 1:3 dilutions of 5 μL in 10 μL of DMSO, followed by a further dilution of 5 μL of compound with 95 μL of medium, of which 2 μL were added to cells in the final assay giving a final DMSO concentration of 0.2%. Cells were incubated at 37° C., 5% CO2 for 3 days.
(§3) Total ATP was measured (as a surrogate estimate of cell number) using CellTiter-Glo® reagent (Promega G7571). Briefly, plates were removed from the incubator and allowed to equilibrate to room temperature for 30 minutes. CellTiter-Glo® (25 μL or 55 μL for 384-well or 96-well assays, respectively) reagent was added to each well and plates were shaken on an orbital plate shaker for 2 minutes. Plates were incubated without shaking for a further 30 minutes and read on an LJL Analyst GT reader in luminometer mode with an integration time of 0.5 seconds per well. Percent inhibition of cell growth was calculated relative to DMSO vehicle-treated control wells. Concentration of compound required to give 50% inhibition of vehicle-treated control cell growth (IC50) was interpolated using a 4-parameter fit for determining IC50 using the following equation: Y=A +((B−A)/(1+((C/X)̂D))) where […].

For assay [2], the target named is T1, ErbB2 (Homo sapiens, UniProt P04626).
T1 construct: made in house; host or cells: baculovirus expression system
Put plainly: ErbB-2 substrate phosphorylation assay (HTRF). It counts as biochemical. As to the method: (§4) Compounds of the present invention were tested for EGFR and ErbB-2 protein tyrosine kinase inhibitory activity in substrate phosphorylation assays using enzymes purified from a baculovirus expression system. Reagent production was conducted essentially as described in Brignola, P. S., et al, (2002) J. Biol. Chem. 277(2):1576-1585.
(§5) The method measures the ability of the isolated enzyme to catalyse the transfer of the gamma-phosphate from ATP onto the tyrosine residue of a biotinylated synthetic peptide referenced “Peptide C” in Brignola, P. S., et al, (2002) J. Biol. Chem. 277(2):1576-1585. The extent of tyrosine phosphorylation was measured using an anti-phosphotyrosine antibody, and quantified by homogenous time-resolved fluorescence (HTRF).
(§6) Reactions were performed in black 384-well polystyrene flat-bottom plates in a final volume of 20 μL. Assays were performed by adding 10 μL of each of the following solutions, Substrate Mix and Enzyme Mix: The Substrate Mix contained 100 mM 3-[N-morpholino]propanesulfonic acid (MOPS) (pH 7.5), 2 mM MnCl2, 20 μM ATP, 0.01% Tween-20, 0.1 mg/mL (BSA), 0.8 uM peptide substrate, and 1 mM dithiothreitol. The Enzyme Mix contained 100 mM MOPS (pH7.5); 0.01% Tween-20; 0.1 mg/mL BSA, and either 0.8 nM EGFR, 10 nM ErbB2, or 1 nM ErbB4. The Enzyme Mix was added to the compound plates and the plates were incubated at 20° C. for 1 hr. The reactions were then started by adding the Substrate Mix.
(§7) After initiating the reaction with the method described above, the reactions were allowed to proceed for 90 minutes at 20° C. The reactions were then terminated by the addition of 20 μL 100 mM EDTA to each well. 40 μL/well of HTRF detection mix were added to the assay plates. The final concentrations of the detection reagents were: 100 mM HEPES (pH7.5), 0.1 mg/mL BSA, 15 nM streptavidin-labeled allophycocyanin (PerkinElmer), and 1 nM europium-labeled anti-phosphotyrosine antibody (Perkin Elmer). Assay plates were left unsealed and were counted in a Wallac Multilabel Counter 1420 (PerkinElmer).
(§8) Compounds under analysis were dissolved in dimethylsulfoxide (DMSO) to 1.0 mM and serially diluted 1 to 3 with DMSO through twelve dilutions. 1 μL of each concentration was transferred to the corresponding well of an assay plate. This creates a final compound concentration range from 0.00027 to 47.6 μM.
(§9) The data for dose responses were plotted as % Inhibition calculated with the data reduction formula 100*(1-(U1−C2)/(C1−C2)) versus concentration of compound where U1 is the unknown value, C1 is the average control value obtained for 4.76% DMSO, and C2 is the average control value obtained for 0.035 M EDTA. Data were fitted with a curve described by:
(§10) where Vmax is the upper asymptote, Y2 is the Y intercept, and K is the IC50. The results for each compound were recorded as pIC50s, calculated as follows: […]

The target in assay [3] is T2, EGFR (Homo sapiens, UniProt P00533).
T2 construct: made in house; host or cells: baculovirus expression system
Put plainly: EGFR substrate phosphorylation assay (HTRF). It counts as biochemical. Here is the method: as §4, §5, §6, §7, §8, §9, §10

Assay [4] addresses B-Raf (Homo sapiens, UniProt P15056). Description: B-Raf Accelerated MEK ATPase assay (BRAMA), Method A or B. As to conditions: Method B: final MEK 150 nM, single end point read. The assay is classed as biochemical. Here is the method:
Compounds of the present invention were tested for B-Raf protein serine kinase inhibitory activity in a B-Raf Accelerated MEK ATPase assay (BRAMA). The BRAMA assay is a high sensitivity assay which measures an intrinsic MEK-mediated ATP hydrolysis uncoupled from downstream ERK phosphorylation by coupling the formation of ADP to NADH oxidation through the enzymes pyruvate kinase and lactate dehydrogenase. When ADP production is initiated by addition of catalytic amounts of an activated Raf enzyme and non-phosphorylated MEK, one observes robust ADP production concomitant with Raf-mediated phosphorylation of MEK.
Method A: Specific details of the assay are disclosed in: C. Rominger, M. Schaber, E. May. Assay for B-Raf Activity Based on Intrinsic MEK ATPase Activity. Statutory Invention Registration 11/084,993 (March, 2005). Method B: The method is the same as method A, but includes the following changes: 1) the assay was performed with a final MEK concentration of 150 nM and 2) the assay was read as single end point instead of a kinetic read.

In assay [5] the test system is SK-MEL-28 tumor cells. Description: Cell growth inhibition assay (CellTiter-Glo), SK-MEL-28. The assay is classed as cell-based, Human. As to conditions: Homo sapiens, SK-MEL-28, 72 h; 3 days incubation. As to the method:
as §1, §2, §3

T1 sequence (P04626 23-1255): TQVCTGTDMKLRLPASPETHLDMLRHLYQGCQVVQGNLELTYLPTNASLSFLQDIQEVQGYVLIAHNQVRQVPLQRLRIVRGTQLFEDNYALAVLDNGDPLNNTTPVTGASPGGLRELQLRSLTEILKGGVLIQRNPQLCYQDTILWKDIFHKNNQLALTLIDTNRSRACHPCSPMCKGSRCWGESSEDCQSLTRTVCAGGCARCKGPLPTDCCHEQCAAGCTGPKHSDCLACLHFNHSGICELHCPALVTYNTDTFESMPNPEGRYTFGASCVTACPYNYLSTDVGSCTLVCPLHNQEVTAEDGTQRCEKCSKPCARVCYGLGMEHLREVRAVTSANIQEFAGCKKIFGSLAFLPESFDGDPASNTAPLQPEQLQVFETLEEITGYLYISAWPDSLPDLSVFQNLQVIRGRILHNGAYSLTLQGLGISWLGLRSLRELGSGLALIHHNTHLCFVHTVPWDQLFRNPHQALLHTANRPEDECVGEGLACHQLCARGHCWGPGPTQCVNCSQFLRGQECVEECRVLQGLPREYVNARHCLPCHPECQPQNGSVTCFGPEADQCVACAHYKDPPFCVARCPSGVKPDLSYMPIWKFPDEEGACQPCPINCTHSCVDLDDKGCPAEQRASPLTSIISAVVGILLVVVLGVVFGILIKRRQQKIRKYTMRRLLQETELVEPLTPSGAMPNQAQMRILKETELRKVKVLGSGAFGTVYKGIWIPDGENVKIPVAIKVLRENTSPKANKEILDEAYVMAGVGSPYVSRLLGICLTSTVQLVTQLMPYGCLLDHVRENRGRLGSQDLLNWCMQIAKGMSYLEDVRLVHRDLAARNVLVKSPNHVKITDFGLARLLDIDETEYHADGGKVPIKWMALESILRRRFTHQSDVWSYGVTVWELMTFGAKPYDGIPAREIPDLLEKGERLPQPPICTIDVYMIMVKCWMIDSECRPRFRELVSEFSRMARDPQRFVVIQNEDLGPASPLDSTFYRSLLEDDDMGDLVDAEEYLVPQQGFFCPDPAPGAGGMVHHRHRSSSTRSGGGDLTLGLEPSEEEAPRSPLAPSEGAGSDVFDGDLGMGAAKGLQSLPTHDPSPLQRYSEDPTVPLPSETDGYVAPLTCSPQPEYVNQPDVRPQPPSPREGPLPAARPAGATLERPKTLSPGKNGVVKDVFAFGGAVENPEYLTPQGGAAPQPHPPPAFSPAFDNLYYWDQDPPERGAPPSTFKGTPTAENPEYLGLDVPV
T2 sequence (P00533 25-1210): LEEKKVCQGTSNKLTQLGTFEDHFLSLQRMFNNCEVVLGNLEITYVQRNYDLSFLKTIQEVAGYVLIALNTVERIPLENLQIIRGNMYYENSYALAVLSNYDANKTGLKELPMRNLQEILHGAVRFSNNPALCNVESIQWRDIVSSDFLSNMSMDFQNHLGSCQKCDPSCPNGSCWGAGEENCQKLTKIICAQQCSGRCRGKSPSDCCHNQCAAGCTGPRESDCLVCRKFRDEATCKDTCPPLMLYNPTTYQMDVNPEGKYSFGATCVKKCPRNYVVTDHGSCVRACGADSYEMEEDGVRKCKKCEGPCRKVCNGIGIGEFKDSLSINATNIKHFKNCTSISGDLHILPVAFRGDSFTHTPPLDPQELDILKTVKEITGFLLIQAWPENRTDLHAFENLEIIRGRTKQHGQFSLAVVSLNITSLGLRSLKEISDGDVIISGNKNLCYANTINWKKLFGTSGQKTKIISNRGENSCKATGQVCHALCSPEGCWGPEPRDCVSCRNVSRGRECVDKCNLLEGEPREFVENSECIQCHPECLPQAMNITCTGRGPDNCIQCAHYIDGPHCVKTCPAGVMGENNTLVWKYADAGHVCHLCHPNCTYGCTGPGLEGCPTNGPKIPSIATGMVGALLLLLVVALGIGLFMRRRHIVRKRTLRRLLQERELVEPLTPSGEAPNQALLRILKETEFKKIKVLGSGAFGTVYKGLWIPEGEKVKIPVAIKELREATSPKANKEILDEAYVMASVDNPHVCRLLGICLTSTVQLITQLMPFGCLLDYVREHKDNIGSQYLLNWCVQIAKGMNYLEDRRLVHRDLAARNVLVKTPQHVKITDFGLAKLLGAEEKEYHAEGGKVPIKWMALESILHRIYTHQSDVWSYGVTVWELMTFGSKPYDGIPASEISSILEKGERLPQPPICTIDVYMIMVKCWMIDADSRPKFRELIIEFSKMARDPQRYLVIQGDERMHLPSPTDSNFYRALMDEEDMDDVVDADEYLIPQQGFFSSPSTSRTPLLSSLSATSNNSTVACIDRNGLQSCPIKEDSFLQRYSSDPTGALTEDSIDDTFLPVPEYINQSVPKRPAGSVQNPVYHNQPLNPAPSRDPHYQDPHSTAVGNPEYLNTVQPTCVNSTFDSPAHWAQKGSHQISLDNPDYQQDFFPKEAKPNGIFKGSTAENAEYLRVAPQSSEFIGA
B-Raf, sequence (P15056 whole entry): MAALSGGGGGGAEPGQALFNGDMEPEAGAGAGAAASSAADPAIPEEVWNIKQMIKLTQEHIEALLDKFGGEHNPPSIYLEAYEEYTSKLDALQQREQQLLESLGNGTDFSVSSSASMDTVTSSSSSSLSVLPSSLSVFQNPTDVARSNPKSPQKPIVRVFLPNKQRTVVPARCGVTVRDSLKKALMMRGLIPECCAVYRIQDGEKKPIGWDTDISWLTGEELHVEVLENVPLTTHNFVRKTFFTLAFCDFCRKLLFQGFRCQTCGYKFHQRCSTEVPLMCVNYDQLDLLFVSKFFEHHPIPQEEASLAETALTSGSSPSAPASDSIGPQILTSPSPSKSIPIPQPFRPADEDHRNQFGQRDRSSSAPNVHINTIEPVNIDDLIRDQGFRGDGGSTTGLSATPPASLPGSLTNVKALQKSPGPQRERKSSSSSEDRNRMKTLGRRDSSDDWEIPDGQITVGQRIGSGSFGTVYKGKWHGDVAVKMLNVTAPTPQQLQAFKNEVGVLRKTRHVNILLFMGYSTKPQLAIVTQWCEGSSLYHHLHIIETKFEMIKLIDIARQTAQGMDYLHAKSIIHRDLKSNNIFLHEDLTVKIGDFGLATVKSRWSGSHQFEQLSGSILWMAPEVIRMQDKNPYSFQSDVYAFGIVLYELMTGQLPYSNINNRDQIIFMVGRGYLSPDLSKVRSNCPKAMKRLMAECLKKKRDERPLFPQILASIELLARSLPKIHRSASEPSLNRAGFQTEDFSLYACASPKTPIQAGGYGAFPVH

On to `COc1cc(N2CCC(CCS(C)(=O)=O)CC2)c(C)cc1Nc1nccc(-c2sc(C(C)C)nc2-c2ccnc(NS(=O)(=O)c3c(F)cccc3F)c2)n1` [Example 108], for which the IC50 in assay [1] is 100 to 1000 nM; in assay [2] it was more than 1000 nM; in assay [3], more than 1000 nM; in assay [4], less than 100 nM; in assay [5], more than 1000 nM.

For the molecule `COC(=O)c1ccc(S(=O)(=O)Nc2cccc(-c3nc(C(C)C)sc3-c3ccnc(Nc4ccc(N5CCOCC5)nc4)n3)c2)o1` [Example 110], the half-maximal inhibitory concentration (IC50) is 100 to 1000 nM in assay [1]; more than 1000 nM in assay [2]; more than 1000 nM in assay [3]; less than 100 nM in assay [4]; more than 1000 nM in assay [5].

On to `Cc1ccc(-c2nc(C(C)C)sc2-c2ccnc(Nc3ccc(N4CCOCC4)nc3)n2)cc1NS(=O)(=O)c1c(F)cccc1F` [Example 111], for which the IC50 is more than 1000 nM in assay [1]; 100 to 1000 nM in assay [2]; 100 to 1000 nM in assay [3]; 100 to 1000 nM in assay [4]; more than 1000 nM in assay [5].

Take `COc1cc2c(cc1Nc1nccc(-c3sc(C(C)C)nc3-c3cccc(NS(=O)(=O)c4c(F)cccc4F)c3)n1)N(C(=O)CN(C)C)CC2` [Example 118]: the IC50 in assay [1] was more than 1000 nM; in assay [2] it was 100 to 1000 nM; in assay [3], 100 to 1000 nM; in assay [4], 100 to 1000 nM; in assay [5], more than 1000 nM.

For `COc1cc(N2CCN(CCS(C)(=O)=O)CC2)c(C)cc1Nc1nccc(-c2sc(C(C)C)nc2-c2cccc(NS(=O)(=O)c3c(F)cccc3F)c2F)n1` [Example 125], the IC50 in assay [1] was 100 to 1000 nM; in assay [2] it was less than 100 nM; in assay [3], less than 100 nM; in assay [4] it was less than 100 nM; in assay [5], less than 100 nM.

For `COc1cc(N2CCN(CCS(C)(=O)=O)CC2)c(C)cc1Nc1nccc(-c2sc(C)nc2-c2cccc(NS(=O)(=O)c3c(F)cccc3F)c2)n1` [Example 134], the 50% inhibitory concentration (IC50) is 100 to 1000 nM in assay [1]; 100 to 1000 nM in assay [2]; less than 100 nM in assay [3]; 100 to 1000 nM in assay [4]; 100 to 1000 nM in assay [5].

Turning to `CC(C)c1nc(-c2ccc(F)c(NS(=O)(=O)c3ccccc3C(F)(F)F)c2)c(-c2ccnc(Nc3ccc(N4CCOCC4)nc3)n2)s1` [Example 135], the IC50 in assay [1] was 100 to 1000 nM; in assay [2], 100 to 1000 nM; in assay [3] it was more than 1000 nM; in assay [4], less than 100 nM; in assay [5], 100 to 1000 nM.

Regarding `COc1cc(N2CCN(CCS(C)(=O)=O)CC2)c(C)cc1Nc1nccc(-c2oc(N3CCCC3)nc2-c2cccc(NS(=O)(=O)c3c(F)cccc3F)c2)n1` [Example 136], the IC50 in assay [1], in assay [2], in assay [3], in assay [4] and in assay [5] was 100 to 1000 nM each time.

As for `Cc1cc(CS(C)(=O)=O)ccc1Nc1nccc(-c2sc(C(C)C)nc2-c2ccc(F)c(NS(=O)(=O)c3c(F)cccc3F)c2)n1` [Example 138], the IC50 is 100 to 1000 nM in assay [1]; more than 1000 nM in assay [2]; more than 1000 nM in assay [3]; less than 100 nM in assay [4]; less than 100 nM in assay [5].

Take `CC(C)c1nc(-c2cccc(NS(=O)(=O)c3c(F)cccc3F)c2)c(-c2ccnc(Nc3cnc(N4CCOCC4)cc3O)n2)s1` [Example 139]: the IC50 is 100 to 1000 nM in assay [1]; more than 1000 nM in assay [2]; more than 1000 nM in assay [3]; less than 100 nM in assay [4]; 100 to 1000 nM in assay [5].

`CC(C)c1nc(-c2cccc(NS(=O)(=O)c3cccc(OC(F)F)c3)c2)c(-c2ccnc(Nc3ccc(N4CCOCC4)nc3)n2)s1` [Example 141]: the IC50 in assay [1] was 100 to 1000 nM; in assay [2], 100 to 1000 nM; in assay [3], more than 1000 nM; in assay [4] it was 100 to 1000 nM; in assay [5] it was 100 to 1000 nM.

With `CC(C)c1nc(-c2cccc(NS(=O)(=O)c3ccc(C(C)(C)C)cc3)c2)c(-c2ccnc(Nc3ccc(N4CCOCC4)nc3)n2)s1` [Example 142], the IC50 is more than 1000 nM in assay [1]; 100 to 1000 nM in assay [2]; more than 1000 nM in assay [3]; less than 100 nM in assay [4]; more than 1000 nM in assay [5].

As to `O=S(=O)(Nc1cccc(-c2nc(-c3ccc(F)c(Cl)c3)sc2-c2ccnc(Nc3ccc(N4CCOCC4)nc3)n2)c1F)c1c(F)cccc1F` [Example 143], the IC50 was 100 to 1000 nM in assay [1]; more than 1000 nM in assay [2]; more than 1000 nM in assay [3]; less than 100 nM in assay [4]; less than 100 nM in assay [5].
